How the values were obtained:
Format in all cases: in vivo
Lolium multiflorum = assay: Greenhouse trial, post-emergence herbicidal action, visual scoring; settings: 672 h, approx. 4 weeks after application
Procedure: (§1) The seeds of typical harmful plants and of typical cereal plants were sown, allowed to emerge and grown under greenhouse conditions. Treatment with the compositions according to the invention was carried out after emergence of the harmful plants generally at the 2- to 4-leaf stage at various dosages using a water application rate of 300 l/ha (converted).
(§2) After the treatment (approx. 4 weeks after application), the herbidical activity of the active compounds or active compound mixtures was scored visually by comparing the treated plots with untreated control plots. Damage and development of all above-ground parts of the plants was recorded. Scoring was done on a percentage scale (100% activity=all plants dead; 50% activity=50% of the plants and green plant parts dead; 0% activity=no discernible activity=like control plot).
(§3) The results are listed in the tables below, where the activity measured for the independent use of the active compounds A) and B) is stated in brackets and g of AS/ha means gram of active substance per hectare.

Alopecurus myosuroidis = assay: as above; settings: 672 h, approx. 4 weeks after application
Procedure: as §1, §2, §3

Wheat = assay: Greenhouse trial, post-emergence crop damage, visual scoring; settings: approx. 4 weeks after application
Procedure: as §1, §2, §3

Fc1ccc([C@]2(Cn3cncn3)O[C@H]2c2ccccc2Cl)cc1 (racemic) [epoxiconazole]
0%: inhibition at 125 g/ha (Lolium multiflorum; 125 g of AS/ha) | inhibition at 250 g/ha (Lolium multiflorum; 250 g of AS/ha) | inhibition at 125 g/ha (Alopecurus myosuroidis; 125 g of AS/ha) | inhibition at 250 g/ha (Alopecurus myosuroidis; 250 g of AS/ha) | Wheat % damage (Wheat; 125 g of AS/ha) | Wheat % damage (Wheat; 250 g of AS/ha)

Reference: patent US8318637B2, “Herbicide/azole combination” (Bayer Cropscience AG, priority 2007, dated 2012)
